Measurements as given in patent US8173441B2, “Method for applying NMR for ligand discovery or as a drug screening tool” (Universiteit Leiden, priority 2001, dated 2012).
“Also recorded” adds a separate entry of the source.

What was measured:
[1] = biological target: T1, C-terminal SH2 domain (CSH2) from the 85 kDa, alpha form of the regulatory subunit of bovine phosphoinositide 3′ kinase (Bos taurus, UniProt P23727); test: Target immobilized NMR screening (TINS): 1H-NMR difference spectrum, control resin vs resin with CSH2 covalently bound; format: binding; conditions: 1 mM each compound in D2O, d11-Tris pH 7.5, 50 mM NaCl, CSH2 on Actigel ALD resin
T1 construct: the c-terminal SH2 domain of p85alpha was prepared as previously described by Siegal et al; made in house
T1 sequence (P23727 624-718 limits assumed): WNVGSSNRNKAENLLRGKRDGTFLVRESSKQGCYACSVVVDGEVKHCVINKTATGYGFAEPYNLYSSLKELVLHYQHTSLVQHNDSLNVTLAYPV
From the text: In this example, it was aimed to investigate whether binding of a small molecule to a target bound to the resin would be detectable in the ^1H spectrum. The test system utilized the C-terminal SH2 domain (CSH2) from the 85 kDa, alpha form of the regulatory subunit of bovine phosphoinositide 3′ kinase. This small (110 residues) protein domain has well characterized binding specificity.
To see whether the method of the present invention provides a mode appropriate for efficient screening of a large library of compounds, CSH2 was immobilized on a chemically activated chromatography resin of Actigel ALD by covalent attachment. Attachment occurs via primary amines on the surface of CSH2 as described in the manufacturers literature and therefore is (approximately) randomly oriented.
In detail, the c-terminal SH2 domain of p85alpha was prepared as previously described by Siegal et al. in J. Mol. Biol. 276(1998), 461-478. 11 mg of this domain CSH2 in a buffer consisting of 25 mM HEPES pH 7.5 and 100 mM NaCl was incubated with 1 ml of Actigel ALD (Sterogene, Carlsbad, Calif., USA) according to the manufacturers protocol. This amount corresponds to a 1 mM solution concentration. Unbound sites on the gel were blocked using d11-Tris (Cambridge Isotopes, Andover, Mass., USA). The control resin was derivatized exclusively with d11-Tris.
The potential ligands were dissolved in 99% D2O with d11-Tris.
In all cases, the control and experimental target containing resins were washed three times with the same mixture of test substances.
All NMR spectra were recorded on a Bruker (Bruker, Germany) DMX 600 spectrometer. Spectra typically consisted of 16 to 64 transients of 2 k complex points, were apodized using a sin^2 function and automatically baseline corrected using the supplied XWINNMR software provided by the manufacturer, Bruker, and methods described in the manufacturers literature. Difference spectra were also calculated using XWINNMR

[2] = system: 26 base synthetic double stranded 5′ biotinylated oligonucleotide (DNA); test: TINS: 1H-NMR difference spectrum, streptavidin-sepharose resin vs resin with biotinylated oligonucleotide bound; format: binding; conditions: 1 mM solution in D2O; oligonucleotide on streptavidin-sepharose resin
SH2 domain (CSH2) = SH2 domain (CSH2) (Bos taurus, UniProt P23727); conditions: mimic of the natural ligand; cited from earlier work
SH2 domain (CSH2), sequence (P23727 624-718 limits assumed): as above

Structure (SMILES)	binding to immobilized CSH2 (diminution of peaks / peaks in the difference spectrum) [1]	binding to immobilized oligonucleotide (peaks in the difference spectrum) [2]	further results
N[C@@H](Cc1ccc(OP(=O)(O)O)cc1)C(=O)O [phosphotyrosine]	only peaks derived from phosphotyrosine	do not bind	binding to immobilized CSH2 (diminution of peaks / peaks in the difference spectrum) ([1]; listed as pY): clear diminution of the peaks; also recorded: relatively tight binding; Kd (SH2 domain (CSH2)): ~600 µM
N=C(N)NCCC[C@H](N)C(=O)O [arginine]	do not bind	do not bind	
CSCC[C@H](N)C(=O)O [methionine]			binding to immobilized CSH2 (diminution of peaks / peaks in the difference spectrum) ([1]; listed as M): small residual peaks; also recorded: Weak binding
c1c[nH]cn1 [imidazole, Imidazole]		do not bind	
NCC(=O)O [glycine]	do not bind		
NCCCNCCCCNCCCN [spermine]		Only peaks derived from spermine; also recorded: can be detected; also recorded: only spermine peaks remain	
